Assay results published in ChEMBL document CHEMBL3272321, “Preliminary biological studies of certain amino acid analogues” (J Med Chem, 1976).
Calls of active or inactive are those of the source. No cut-off for these calls is given here.

Tests used:
Mus musculus [1] = test: Toxicity in albino mouse at 400 mg/kg, ip qd for 7 days measured after 7 days; assay type: organism-based; parameters: dose 400 mg/kg, route intraperitoneal; conditions: in vivo, 168 h
[2] = Retardation factor, Rf of the compound by paper chromatographic analysis; assay type: physicochemical
Mus musculus [3] = organism: Mus musculus; test: Toxicity in albino mouse assessed as tissue damage; assay type: organism-based; conditions: in vivo
Escherichia coli [4] = test: Bacteriostatic activity against Escherichia coli 9723 at 5 to 15 X 10^-5 mole/10 ml after 5 to 25 hrs by spectrophotometric analysis; assay type: functional, organism-based
Escherichia coli [5] = test: Bacteriostatic activity against Escherichia coli 9723 at 5 to 15 X 10^-5 mole/10 ml after 5 to 25 hrs by spectrophotometric analysis in presence of D-methionine; assay type: functional, organism-based
Escherichia coli [6] = test: Bacteriostatic activity against Escherichia coli 9723 at 5 to 15 X 10^-5 mole/10 ml after 5 to 25 hrs by spectrophotometric analysis in presence of L-methionine; assay type: functional, organism-based
[7] = Drug excretion in albino mouse feces at 2 mg, sc after 24 hrs; assay type: ADME, organism-based; conditions: faeces, read-out: Drug excretion
[8] = Drug excretion in albino mouse urine at 2 mg, sc after 24 hrs; assay type: ADME, organism-based; conditions: read-out: Drug excretion
Escherichia coli [9] = test: Bacteriostatic activity against Escherichia coli 9723 after 8 hrs by spectrophotometric analysis; assay type: functional
Escherichia coli [10] = test: Bacteriostatic activity against Escherichia coli 9723 after 19 hrs by spectrophotometric analysis; assay type: functional
Escherichia coli [11] = test: Bacteriostatic activity against Escherichia coli 9723 at 5 to 15 X 10^-5 mole/10 ml after 5 to 25 hrs by spectrophotometric analysis in presence of L-phenylalanine; assay type: functional, organism-based

| Rf [2] | dose excreted at 24 h [7] | dose excreted at 24 h [8] | GI90 (Escherichia coli [9]) | GI90 (Escherichia coli [10]) | Compound | Activity (Mus musculus [1]) | Activity (Mus musculus [3]) | Activity (Escherichia coli [4]) | Activity (Escherichia coli [5]) | Activity (Escherichia coli [6]) | Activity (Escherichia coli [11]) |
| --- | --- | --- | --- | --- | --- | --- | --- | --- | --- | --- | --- |
| 0.64 | – | – | – | – | NC(C(=O)O)(C1CC1)C1CC1 | Non-toxic | Non-toxic | – | – | – | – |
| 0.71 | 2.2% | 97.6% | 0.0013 M | 0.01 M | C=CCCC(C)(N)C(=O)O (stereo not given) | Non-toxic | Non-toxic | Active | inactive | inactive | – |
| 0.77 | 2.1% | 97.9% | 0.0025 M | 0.005 M | CC[C@](N)(Cc1ccccc1)C(=O)O | Non-toxic | Non-toxic | Active | – | – | inactive |
| 0.56 | – | – | – | – | CC(N)(C(=O)O)C1CC1 (stereo not given) | Non-toxic | Non-toxic | – | – | – | – |
